In patent US12370202B2, “Methods and compositions for inhibiting the NLRP3 inflammasome and/or LON protease” (TRITERPENOID THERAPEUTICS, INC., priority 2019, dated 2025):

Columns and labels:
Caspase 1 = Caspase 1 activation in LPS-primed BMDM, immunoblotting (caspase-p10); assay type: cell-based, mouse; conditions: different doses (30-1000 nM) 15 min before ATP (5 mM) 45 min
Description: FIG. 5 depicts a Western blot. CDDO-Im, CDDO-2P-Im, and CDDO-3P-Im inhibit Caspase 1 activation. LPS primed BMDM were treated with different doses of CDDO-Im, CDDO-2P-Im, or CDDO-3P-Im for 15 min before ATP (5 mM) was added for 45 min. Medium supernatant (SUP) and cell extracts (Lys) were analyzed by immunoblotting.
The effects of the pyridyl derivatives of CDDO-IM, (specifically, CDDO-2P-Im and CDDO-3P-Im) on NLRP3 inflammasome activation were tested in mouse BMDMs. Cells were first primed with LPS for 4 hours, then pretreated with specific doses of either CDDO-Im, CDDO-2P-IM or CDDO-3P-Im (30-1000 nM) for 15 min before ATP was added for another 45 min. CDDO-Im and its pyridyl derivatives inhibited the amount of caspase-p10 (an auto-processed fragment of caspase-1) released into cell culture supernatants in a dose-dependent manner as measured by Western blot (FIG. 5). […] The effect on caspase-1 activation is specific for the NLRP3 inflammasome as the AIM2 inflammasome activation by poly(dA:dT) was not inhibited by the synthetic CDDO-Im derivatives (data not shown).

OVCAR-5 = test: Ovarian cancer cell growth (confluence), IncuCyte ZOOM; assay type: cell-based, human
From the text: (§1) FIG. 11 is a set of line graphs. Cisplatin resistant human ovarian cancer cell lines A2780, CP70, OV81, CP10, OVCAR-5 and OVCAR-8 were exposed to CDDO-2P-Im, cisplatin, or a combination of CDDO-2P-Im and cisplatin.
(§2) CDDO-2P-Im suppresses growth of cisplatin-resistant human ovarian cancer cells in vitro. Cisplatin resistant human ovarian cancer cell lines A2780, CP70, OV81, CP10, OVCAR-5 and OVCAR-8 cell were each cultured in a complete medium consisting of RPMI1640, 20% heat-inactivated FBS, 1% penicillin/streptomycin. Cells were cultured in a water jacketed CO2 incubator at 37° C. in a humidified atmosphere consisting of 5% CO2 and 95% air. Continuous live-cell analysis (CLCA) was used as a non-invasive cell monitoring and measurement method based on time-lapse, phase-contrast microscopy and fluorescence imaging, using IncuCyte® ZOOM. Cells were seeded in 96-well plates at densities of either 1×10^4 or 3×10^4 cell/cm^2 followed by addition of a drug dilution series for either CDDO-2P-Im or Cisplatin (P4394, Sigma) dissolved in PBS and diluted in media. […] Reduction in confluence is accompanied by the detachment and death of ovarian cancer cells.

CP70 = test: as above; assay type: cell-based, human
From the text: as §1, §2

OV81 = test: as above; assay type: cell-based, human
From the text: as §1, §2

OVCAR-8 = test: as above; assay type: cell-based, human
From the text: as §1, §2

A2780 = test: as above; assay type: cell-based, human
From the text: as §1, §2

CP10 = test: as above; assay type: cell-based, human
From the text: as §1, §2

U251 = test: GBM cell growth (confluence), IncuCyte; assay type: cell-based, human; conditions: not shown
Description: (§3) To define the capacity of CDDO-2P-IM to suppress the growth and viability of GBM, several well-characterized human GBM cell lines (U251, U-87MG, LN227, Gli36Δ5), primary cultures of patient-derived GBM cells (UVM04, D028), and normal human astrocytes (provided by Dr. Arti Gaur, Dartmouth College) were utilized.
(§4) The activity of CDDO-2P-IM in cultures of human GBM was assessed and similar nanomolar (nM) potency was observed. […] These changes in confluence observed by Incucyte® corresponded with a reduction in cell viability. Doses of CDDO-2P-IM that result in complete cell death of the LN227, U251 and U-87MG cell lines had no effect on the viability of primary human astrocytes in vitro (not shown).

ARH77 cells = test: MM cell proliferation (confluence), IncuCyte imaging; assay type: cell-based, human; conditions: 72 hours
Description: (§5) FIG. 2 is a bar graph. CDDO-2P-Im inhibits proliferation of multiple myeloma cell line in vitro. 5T33MM, RPMI8226, and ARH77 cells were seeded in 96-well plates and incubated with CDDO-2P-Im (50 nM-150 nM). Confluence (cell proliferation) was measured using IncuCyte imaging after 72 hours. *p<0.01 compared to control.
(§6) FIG. 3 is a bar graph. […] Shown here are results for 5T33MM (50 nM TTX01/7.5 nM IXZ); RPMI8226 (100 nM TTX01/7.5 nM IXZ); and ARH77 (150 nM TTX01/10 nM IXZ). Confluence (cell proliferation) was measured using IncuCyte imaging after 72 hours.
(§7) To examine tumor-intrinsic effects of CDDO-2P-IM in the 5T33MM cell line and in human MM cells, conducted a series of in vitro studies was conducted. For these experiments, 96-well plates were first coated in poly-L-ornithine before cells were seeded (in triplicate), including the murine 5T33MM and the human RPMI8226, and ARH77 cell lines (15,000 cells per well). Cells were incubated in IncuCyte™ Live-Cell Analysis System for 72 hours (images were taken every 4 hours). To define dose-dependent effect of CDDO-2P-IM, cells were exposed to concentrations ranging from 50 nM to 150 nM. To examine potential synergy of CDDO-2P-IM with IXZ, MM cells were exposed to IXZ (7 nM-10 nM) either alone or in combination with CDDO-2P-IM.

RPMI8226 cells = test: as above; assay type: cell-based, human; conditions: 72 hours
Description: as §5, §6, §7

LONP1 = LONP1 (Homo sapiens, UniProt P36776); test: Binding to LONP1
Sequence of LONP1 (P36776 68-959, species assumed): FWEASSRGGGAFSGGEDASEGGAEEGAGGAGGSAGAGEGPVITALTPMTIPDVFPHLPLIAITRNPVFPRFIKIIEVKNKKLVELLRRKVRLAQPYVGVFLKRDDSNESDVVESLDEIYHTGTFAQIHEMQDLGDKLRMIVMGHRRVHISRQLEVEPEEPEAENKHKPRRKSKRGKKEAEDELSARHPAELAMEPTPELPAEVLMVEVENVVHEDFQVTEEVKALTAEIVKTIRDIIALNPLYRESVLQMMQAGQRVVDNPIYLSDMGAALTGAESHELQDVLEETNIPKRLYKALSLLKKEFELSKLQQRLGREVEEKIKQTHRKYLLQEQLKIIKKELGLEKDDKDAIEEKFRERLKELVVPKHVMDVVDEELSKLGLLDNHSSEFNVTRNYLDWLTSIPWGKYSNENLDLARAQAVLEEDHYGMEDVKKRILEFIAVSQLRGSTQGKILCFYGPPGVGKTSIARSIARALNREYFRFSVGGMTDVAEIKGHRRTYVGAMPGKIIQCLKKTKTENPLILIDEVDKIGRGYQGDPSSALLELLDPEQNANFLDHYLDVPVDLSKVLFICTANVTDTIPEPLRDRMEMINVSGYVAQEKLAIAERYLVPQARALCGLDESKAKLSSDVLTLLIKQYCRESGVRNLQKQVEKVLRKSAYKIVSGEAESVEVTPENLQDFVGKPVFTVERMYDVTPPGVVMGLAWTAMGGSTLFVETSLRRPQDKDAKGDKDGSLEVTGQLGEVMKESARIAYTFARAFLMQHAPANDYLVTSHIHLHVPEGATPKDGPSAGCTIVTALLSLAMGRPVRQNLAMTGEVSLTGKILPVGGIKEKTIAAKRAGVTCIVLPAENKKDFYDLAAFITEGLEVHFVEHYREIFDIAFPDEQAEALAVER

[1] = tested on: primary cultures of patient-derived GBM cells; test: Cell viability in primary cultures of human GBM; assay type: cell-based
Description: as §3, §4

[2] = suboptimal doses combined with cisplatin, significance at 0.005 or greater

CC1(C)CC[C@]2(C(=O)n3cnc(-c4ccccn4)c3)CC[C@]3(C)[C@H](C(=O)C=C4[C@@]5(C)C=C(C#N)C(=O)C(C)(C)[C@@H]5CC[C@]43C)[C@@H]2C1 [CDDO-2P-Im, 1-[2-Cyano-3,12-dioxooleana-1,9(11)-dien-28-oyl]-4(-pyridin-2-yl)-1H-imidazole]
Caspase 1 activation (caspase-p10 released into supernatant) (Caspase 1): inhibit
sensitivity (growth) (OVCAR-5): highly sensitive
ovarian cancer cell kill, combination with cisplatin (OVCAR-5; [2]): significant gain
growth (confluence) (CP70; nanomolar concentrations): suppressed growth in a dose-dependent manner
ovarian cancer cell kill, combination with cisplatin (CP70; [2]): significant gain
sensitivity (growth) (OV81): highly sensitive
ovarian cancer cell kill, combination with cisplatin (OV81; [2]): significant gain
sensitivity (growth) (OVCAR-8): highly sensitive
ovarian cancer cell kill, combination with cisplatin (OVCAR-8; [2]): significant gain
growth (confluence) (A2780; nanomolar concentrations): suppressed growth in a dose-dependent manner
ovarian cancer cell kill, combination with cisplatin (A2780; [2]): significant gain
sensitivity (growth) (CP10): highly sensitive
ovarian cancer cell kill, combination with cisplatin (CP10; [2]): significant gain
confluence (growth) (U251): dose-dependent reduction
proliferation (confluence) (ARH77 cells; 50 nM-150 nM): significant dose-dependent suppressive effects
proliferation (confluence), combination with IXZ (ARH77 cells; 150 nM TTX01/10 nM IXZ): act synergistically
proliferation (confluence), agent added alone (ARH77 cells; 150 nM TTX01 or 10 nM IXZ alone): only partially effective
proliferation (confluence) (RPMI8226 cells; 50 nM-150 nM): significant dose-dependent suppressive effects
proliferation (confluence), combination with IXZ (RPMI8226 cells; 100 nM TTX01/7.5 nM IXZ): act synergistically
proliferation (confluence), agent added alone (RPMI8226 cells; 100 nM TTX01 or 7.5 nM IXZ alone): only partially effective
binding to LONP1 (LONP1): shown to bind LONP1
concentrations at which a significant reduction in cell viability was observed [1]: below 100 nM
